Measurements reported in patent US4017622A, “Piperazine derivatives” (Dainippon Pharmaceutical Co., Ltd., priority 1972, dated 1977).

What was measured:
[1] = test system: Pseudomonas aeruginosa No. 12; assay: In vivo efficacy against systemic infection with Pseudomonas aeruginosa in mice; settings: NO.12, 168 h, male ddY-S mice, ip, twice, about 5 minutes and 6 hours after infection, observation 7 days
Protocol: (§1) In the Tables II and III, the ED50 and LD50 values were calculated in accordance with the Bcherns-Kaerber method [Arch. Exp. Path, Pharm., 162, 480 (1931)].
(§2) 2) In vivo efficacy against systemic infection with
(§3) Pseudomonas aeruginosa and Salmonella typhimurium
*Experimental conditions:
Organism: Pseudomonas aeruginosa No. 12
Mice: male mice (ddY-S) weighing 20 g approximately.
intraperitoneal infection with 50 to 100
LD50 (about 5 × 10^3 cells/mouse) of a
bacterial suspension in 4% gastric mucin.
twice, about 5 minutes and 6 hours after
(§4) Drug: an alkaline solution (pH 8 - 9) for intraperitoneal
(§5) ip: intraperitoneal administration.

Acute toxicity in mice = settings: mouse, in vivo
Protocol: as §1
3) Acute toxicity in mice
Experimental conditions:
Mice: male mice (ddY-S) weighing 20 g approximately
Drug: alkaline solution (pH 8 - 9) for intravenous
administration and suspension in 0.2%
carboxymethyl cellulose for oral administration.
iv: intravenous administration.
ip: oral administration.

Escherichia coli K-12 = assay: In vitro antibacterial activity (MIC, serial dilution), Escherichia coli; settings: nutrient broth, pH 7.0; 37° C for 48 hours
Protocol: (§6) The minimum inhibitory concentration (MIC) was
(§7) determined by the well known serial dilution method.
(§8) Medium: nutrient broth, pH 7.0 (5 ml/tube)
(§9) Inoculum: 1 drop of 1 : 10^5 dilution of an
overnight broth culture per tube

[2] = test system: Staphylococcus aureus Terajima; assay: In vitro antibacterial activity (MIC, serial dilution), Staphylococcus aureus; settings: nutrient broth, pH 7.0; 37° C for 48 hours
Protocol: as §6, §7, §8, §9
overnight broth culture per tube

[3] = test system: Pseudomonas aeruginosa Tsuchijima; assay: In vitro antibacterial activity (MIC, serial dilution), Pseudomonas aeruginosa; settings: nutrient broth, pH 7.0; 37° C for 48 hours
Protocol: as §6, §7, §8, §9
overnight broth culture per tube

[4] = test system: Salmonella typhimurium S-9; assay: In vivo efficacy against systemic infection with Salmonella typhimurium in mice; settings: Salmonella enterica, 336 h, male ddY-S mice, twice a day for 4 days, observation 14 days
Protocol: as §1, §2, §3
**Experimental conditions:
Organism: Salmonella typhimurium S-9
Ice: male mice (ddY-S) weighing 20 g approximately.
Intraperitoneal infection with 50 to 100
LD50 (about 10^5 cells/mouse) of a bacterial
suspension in a nutrient broth.
twice a day for 4 days from the day of
as §4
administration and suspension in 0.2% carboxymethyl
cellulose for oral administration.
as §5
po: oral administration.

Row | SMILES | ED50 [1] | LD50 at 168 h (Acute toxicity in mice; male ddY-S mice, iv, observation 7 days) | LD50 at 168 h (Acute toxicity in mice; male ddY-S mice, po, observation 7 days) | minimum inhibitory concentration (MIC), Escherichia coli K-12 (Escherichia coli K-12) | minimum inhibitory concentration (MIC), Staphylococcus aureus Terajima [2] | minimum inhibitory concentration (MIC), Pseudomonas aeruginosa Tsuchijima [3] | ED50 ([4]; ip) | ED50 ([4]; po) | LD50 at 168 h (Acute toxicity in mice; iv) | LD50 at 168 h (Acute toxicity in mice; po)
1 | CCn1cc(C(=O)O)c(=O)c2cnc(N3CCCC3)nc21 [PA, 5,8-dihydro-8-ethyl-2-pyrrolidino-5-oxopyrido [2,3-d]pyrimidine-6-carboxylic acid, reference compound] | > 100 mg/kg | 268 mg/kg | > 4000 mg/kg | 1 | 10 | 100 |  |  |  | 
2 | CCn1cc(C(=O)O)c(=O)c2ccc(N3CCN(C)CC3)cc21 [compound 1090] | 91.4 mg/kg |  |  | 1 | 30 | 30 | 9.6 mg/kg | 13.6 mg/kg | > 500 mg/kg | 2000 mg/kg
3 | CCn1cc(C(=O)O)c(=O)c2ccc(N3CCNCC3)cc21 [compound 1091] | 6.3 mg/kg |  |  | 1 | 30 | 10 | 15.5 mg/kg | ~109 mg/kg | > 500 mg/kg | 2000 mg/kg
4 | CN1CCN(c2ccc3c(=O)c(C(=O)O)cn(Cc4ccccc4)c3c2)CC1 [compound 1147] |  |  |  | 1 | > 100 | 10 |  |  |  | 
5 | O=C(O)c1cn(Cc2ccccc2)c2cc(N3CCNCC3)ccc2c1=O [compound 1162] |  |  |  | 1 | 30 | 10 |  |  |  | 
6 | CCn1cc(C(=O)O)c(=O)c2ccc(N3CCNCC3)nc21 [compound 1214] | 9.2 mg/kg |  |  | 3 | 30 | 10 | 18.7 mg/kg | ~43.8 mg/kg | > 500 mg/kg | 
7 | CCn1cc(C(=O)O)c(=O)c2ccc(N3CCN(C)CC3)nc21 [compound 1225] |  |  |  | 1 | 100 | 30 |  |  |  | 
8 | CCn1cc(C(=O)O)c(=O)c2ccc(N(C)C)nc21 [compound 1249] | > 100 mg/kg |  |  | 1 | 100 | > 100 |  |  |  | 
9 | C=Cn1cc(C(=O)O)c(=O)c2ccc(N3CCN(C)CC3)nc21 [compound 1276] |  |  |  | 1 | > 100 | 10 |  |  |  | 
10 | CCn1cc(C(=O)O)c(=O)c2cnc(N3CCN(C)CC3)cc21 [compound 1317] | 50 mg/kg |  |  | 3 | 30 | 100 | 14.9 mg/kg | 23.9 mg/kg | > 500 mg/kg | 
11 | CCn1cc(C(=O)O)c(=O)c2cnc(N3CCNCC3)cc21 [compound 1367] | ~12.5 mg/kg |  |  | 3 | > 100 | 30 | 54.5 mg/kg | 70.7 mg/kg |  | 
12 | C=Cn1cc(C(=O)O)c(=O)c2ccc(N3CCNCC3)nc21 [compound 1424] | 3.9 mg/kg |  |  | 1 | 100 | 10 | 19.3 mg/kg | 22.9 mg/kg | 354 mg/kg | > 2000 mg/kg
13 | C=Cn1cc(C(=O)O)c(=O)c2ccc(N3CCN(C)CC3)cc21 [compound 1493] | 17.8 mg/kg |  |  | 1 | 100 | 3 | 3.4 mg/kg | 8.8 mg/kg | > 500 mg/kg | > 2000 mg/kg
14 | C=Cn1cc(C(=O)O)c(=O)c2ccc(N3CCN(CC)CC3)cc21 [compound 1557] | 19.3 mg/kg |  |  | 1 | 30 | 10 | 5.1 mg/kg | 11.5 mg/kg | 354 mg/kg | > 2000 mg/kg
